Values of other authors in US20090196889A1, “CONTROLLED ABSORPTION OF STATINS IN THE INTESTINE” (DEXCEL PHARMA TECHNOLOGIES LTD., priority 2004, published 2009).

Legend:
HMG-CoA reductase = biological target: T1, HMG-CoA reductase (Homo sapiens, UniProt P04035); settings: relative to the beta-hydroxy acid form considered as the drug
T1 sequence (P04035 1-888): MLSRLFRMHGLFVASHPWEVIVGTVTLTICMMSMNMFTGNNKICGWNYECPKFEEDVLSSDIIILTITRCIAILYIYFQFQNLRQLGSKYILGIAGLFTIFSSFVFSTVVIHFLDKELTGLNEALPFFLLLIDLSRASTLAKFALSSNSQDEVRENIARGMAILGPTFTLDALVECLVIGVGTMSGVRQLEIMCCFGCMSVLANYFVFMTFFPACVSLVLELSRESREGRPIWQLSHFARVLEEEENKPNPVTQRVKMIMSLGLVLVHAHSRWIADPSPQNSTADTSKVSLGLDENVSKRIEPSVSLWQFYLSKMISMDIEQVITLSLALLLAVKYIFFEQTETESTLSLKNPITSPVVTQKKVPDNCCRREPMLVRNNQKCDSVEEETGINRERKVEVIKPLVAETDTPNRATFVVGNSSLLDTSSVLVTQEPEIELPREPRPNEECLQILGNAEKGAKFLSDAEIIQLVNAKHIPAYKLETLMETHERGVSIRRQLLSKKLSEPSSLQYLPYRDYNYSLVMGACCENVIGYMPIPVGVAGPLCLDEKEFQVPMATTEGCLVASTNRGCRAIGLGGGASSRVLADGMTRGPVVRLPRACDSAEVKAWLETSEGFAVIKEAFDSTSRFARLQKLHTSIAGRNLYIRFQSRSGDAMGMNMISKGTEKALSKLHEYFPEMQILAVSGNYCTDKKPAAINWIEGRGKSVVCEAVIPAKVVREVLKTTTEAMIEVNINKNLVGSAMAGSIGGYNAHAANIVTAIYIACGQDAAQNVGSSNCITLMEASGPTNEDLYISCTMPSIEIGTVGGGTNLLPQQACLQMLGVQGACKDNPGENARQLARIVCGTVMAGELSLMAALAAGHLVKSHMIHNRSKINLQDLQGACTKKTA

[1] = test system: plasma proteins, primarily albumin; settings: simvastatin and its active acid forms

Structure (SMILES): CCC(C)(C)C(=O)OC1CC(C)(O)C=C2C=CC(C)C(CCC3CC(O)CC(=O)O3)C21 (stereo not drawn) [6-beta-hydroxy simvastatin]
- HMG-CoA reductase activity retained (HMG-CoA reductase): ~50%

Structure (SMILES): CCC(C)(C)C(=O)OC1CC(CO)C=C2C=CC(C)C(CCC3CC(O)CC(=O)O3)C21 (stereo not drawn) [6-beta-hydroxymethyl]
- HMG-CoA reductase activity retained (HMG-CoA reductase): approximately 40%

Structure (SMILES): CCC(C)(C)C(=O)O[C@H]1C[C@@H](C)C=C2C=C[C@H](C)[C@H](CC[C@@H]3C[C@@H](O)CC(=O)O3)[C@H]21 [simvastatin]
- bound to plasma proteins, primarily to albumin [1]: more than 95%
